Measurements published in article PMC4450870 (Pain, 2015).

Legend:
Assay type in all cases: cell-based
KCNQ2 [1] = target: KCNQ2 (Rattus norvegicus, UniProt O88943); assay: whole-cell voltage clamp, CHO cells
KCNQ2 [2] = target: KCNQ2 (Rattus norvegicus, UniProt O88943, R198A); assay: whole-cell voltage clamp, CHO cells
KCNQ2/KCNQ3 = KCNQ2/KCNQ3 (Rattus norvegicus, UniProt O88943+O88944); assay: whole-cell patch clamp, transfected CHO cells; conditions: activator, −10 mV test potential, room temperature, bath pH 7.4
Sequence of KCNQ2/KCNQ3 (O88943 whole entry): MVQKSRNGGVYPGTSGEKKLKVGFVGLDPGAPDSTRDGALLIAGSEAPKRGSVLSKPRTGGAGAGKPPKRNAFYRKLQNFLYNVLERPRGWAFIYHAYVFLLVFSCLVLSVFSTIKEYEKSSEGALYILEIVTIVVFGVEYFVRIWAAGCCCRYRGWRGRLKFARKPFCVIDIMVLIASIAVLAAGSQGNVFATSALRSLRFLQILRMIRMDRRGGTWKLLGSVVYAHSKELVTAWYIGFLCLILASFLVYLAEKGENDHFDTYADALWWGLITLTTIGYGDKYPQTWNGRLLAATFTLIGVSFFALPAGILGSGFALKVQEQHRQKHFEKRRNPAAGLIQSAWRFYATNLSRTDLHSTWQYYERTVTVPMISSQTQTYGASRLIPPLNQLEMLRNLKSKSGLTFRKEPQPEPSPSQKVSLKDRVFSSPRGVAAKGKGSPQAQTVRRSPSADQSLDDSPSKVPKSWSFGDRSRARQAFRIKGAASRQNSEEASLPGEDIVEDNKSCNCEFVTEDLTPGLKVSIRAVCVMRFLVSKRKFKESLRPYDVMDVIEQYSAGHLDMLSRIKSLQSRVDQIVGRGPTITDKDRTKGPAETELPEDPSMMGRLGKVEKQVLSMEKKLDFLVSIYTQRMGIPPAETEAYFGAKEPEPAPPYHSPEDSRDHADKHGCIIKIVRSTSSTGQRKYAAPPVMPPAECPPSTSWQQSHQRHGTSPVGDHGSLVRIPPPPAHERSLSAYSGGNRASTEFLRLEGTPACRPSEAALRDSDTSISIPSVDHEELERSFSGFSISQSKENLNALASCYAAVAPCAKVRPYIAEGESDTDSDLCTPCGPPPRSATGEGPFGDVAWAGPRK
Sequence of KCNQ2/KCNQ3 (O88944 whole entry): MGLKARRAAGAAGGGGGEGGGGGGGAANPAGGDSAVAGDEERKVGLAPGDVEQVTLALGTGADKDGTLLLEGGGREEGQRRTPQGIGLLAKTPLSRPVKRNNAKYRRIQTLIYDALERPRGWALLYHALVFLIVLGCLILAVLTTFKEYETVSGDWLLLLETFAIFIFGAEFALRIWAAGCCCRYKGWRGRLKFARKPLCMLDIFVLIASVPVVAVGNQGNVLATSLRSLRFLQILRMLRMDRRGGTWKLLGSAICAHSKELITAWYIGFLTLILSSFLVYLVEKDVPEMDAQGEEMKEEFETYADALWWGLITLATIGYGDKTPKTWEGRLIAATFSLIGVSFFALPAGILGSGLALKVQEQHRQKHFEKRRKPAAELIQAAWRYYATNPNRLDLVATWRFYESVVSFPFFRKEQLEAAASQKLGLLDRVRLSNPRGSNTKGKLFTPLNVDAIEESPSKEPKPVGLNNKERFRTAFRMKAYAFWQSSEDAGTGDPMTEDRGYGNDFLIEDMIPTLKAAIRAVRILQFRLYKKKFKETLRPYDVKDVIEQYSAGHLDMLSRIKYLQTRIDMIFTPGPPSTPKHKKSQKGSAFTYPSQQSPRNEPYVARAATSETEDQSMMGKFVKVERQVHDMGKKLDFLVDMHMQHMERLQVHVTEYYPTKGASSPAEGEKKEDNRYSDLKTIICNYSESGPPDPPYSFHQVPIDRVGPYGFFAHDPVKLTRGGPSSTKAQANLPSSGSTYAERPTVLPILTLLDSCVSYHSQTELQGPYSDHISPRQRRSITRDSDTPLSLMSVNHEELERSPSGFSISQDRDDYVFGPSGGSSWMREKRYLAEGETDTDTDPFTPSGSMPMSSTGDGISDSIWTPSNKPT

Sequence of KCNQ2 (Rattus norvegicus, UniProt O88943) (O88943 whole entry): as the sequence (O88943 whole entry) above
Sequence of KCNQ2 (Rattus norvegicus, UniProt O88943, R198A) (O88943 whole entry R198A): as the sequence (O88943 whole entry) above, with R198A counted along it

EC50 (KCNQ2 [1]): 4.32 ± 1.4 µM | EC50 (KCNQ2 [2]): 28.2 ± 1.32 µM | fold increase of outward current at 10 μM (KCNQ2/KCNQ3): ~ 1.64 ± 0.08 fold
Compound: CCc1oc2ccccc2c1C(=O)c1cc(Br)c(O)c(Br)c1 [benzbromarone]
